# Measurements reported in ChEMBL document CHEMBL5030528, “Xanthine Derivatives Reveal an Allosteric Binding Site in Methylenetetrahydrofolate Dehydrogenase 2 (MTHFD2)” (J Med Chem, 2021).
# Calls of active or inactive are those of the source. The calls are words filed in the database; no cut-off is given here.
# Key:
# [1] = target: T1, Bifunctional methylenetetrahydrofolate dehydrogenase/cyclohydrolase, mitochondrial (Homo sapiens) (UniProt P13995); experiment: Uncompetitive inhibition of C-terminal His-tagged human MTHFD2 (36 to 350 residues) expressed in insect cells assessed as decrease in Km by using varying levels of tetrahydrofolate as substrate by double-reciprocal plot analysis; conditions: time 10.0 min
# T1 sequence (whole entry): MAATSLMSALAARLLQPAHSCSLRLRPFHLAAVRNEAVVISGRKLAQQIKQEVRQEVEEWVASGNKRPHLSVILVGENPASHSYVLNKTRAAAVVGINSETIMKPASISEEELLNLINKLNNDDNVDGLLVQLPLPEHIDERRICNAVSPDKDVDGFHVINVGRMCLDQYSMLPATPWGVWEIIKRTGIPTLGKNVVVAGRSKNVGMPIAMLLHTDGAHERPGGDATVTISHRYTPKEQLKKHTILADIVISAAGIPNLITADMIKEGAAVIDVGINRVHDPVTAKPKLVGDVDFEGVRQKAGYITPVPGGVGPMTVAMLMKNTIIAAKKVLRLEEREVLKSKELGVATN
# [2] = target: T1, Bifunctional methylenetetrahydrofolate dehydrogenase/cyclohydrolase, mitochondrial (Homo sapiens); experiment: Uncompetitive inhibition of C-terminal His-tagged human MTHFD2 (36 to 350 residues) expressed in insect cells assessed as decrease in Vmax using varying levels of tetrahydrofolate as substrate by double-reciprocal plot analysis; conditions: time 10.0 min
compound,measurement,setting,value
Cc1cc(Nc2nc3c(c(=O)n(Cc4cc5c(Cl)cccc5[nH]4)c(=O)n3C)n2C)nc(CCC(=O)O)n1,inhibition,[1],Active
same,inhibition,[2],Active
